In PubChem BioAssay (NCI):
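Each compound was tested at five concentrations against cells in 96-well plates for 48 hours. GI50 is the concentration that inhibits growth by half. Definition used: TGI = concentration required for complete inhibition of growth.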

Key:
Assay in all cases: NCI tumour cell line growth inhibition, 48 h
MDA-MB-231 breast = tested on: MDA-MB-231 breast
MOLT-4 leukemia = tested on: MOLT-4 leukemia
SNB-19 CNS = tested on: SNB-19 CNS
OVCAR-4 ovarian = tested on: OVCAR-4 ovarian
SF-295 CNS = tested on: SF-295 CNS
HL-60(TB) leukemia = tested on: HL-60(TB) leukemia
NCI-H23 lung = tested on: NCI-H23 lung
CCRF-CEM leukemia = tested on: CCRF-CEM leukemia
RPMI-8226 leukemia = tested on: RPMI-8226 leukemia
SF-268 CNS = tested on: SF-268 CNS
SK-MEL-5 melanoma = tested on: SK-MEL-5 melanoma
LOX IMVI melanoma = tested on: LOX IMVI melanoma
CAKI-1 renal = tested on: CAKI-1 renal
TK-10 renal = tested on: TK-10 renal
SK-MEL-2 melanoma = tested on: SK-MEL-2 melanoma
OVCAR-8 ovarian = tested on: OVCAR-8 ovarian
HCT-116 colon = tested on: HCT-116 colon
T-47D breast = tested on: T-47D breast
SW-620 colon = tested on: SW-620 colon
HOP-62 NSCLC = tested on: HOP-62 NSCLC
SF-539 CNS = tested on: SF-539 CNS
HS 578T breast = tested on: HS 578T breast
IGROV1 ovarian = tested on: IGROV1 ovarian
OVCAR-3 ovarian = tested on: OVCAR-3 ovarian
MDA-MB-435 = tested on: MDA-MB-435
HCT-15 colon = tested on: HCT-15 colon
NCI/ADR-RES ovarian = tested on: NCI/ADR-RES ovarian
NCI-H522 lung = tested on: NCI-H522 lung

`COc1ccc(/C=C/c2nnc(/C=C/c3ccc(OC)c(OC)c3)o2)cc1OC` showed a GI50 (MDA-MB-231 breast) of 3.62 µM, a TGI (MDA-MB-231 breast) of 43.4 µM and a GI50 (MOLT-4 leukemia) of 3.24 µM. For the same molecule, the TGI (MOLT-4 leukemia) was > 100 µM, the GI50 (SNB-19 CNS) was 4.11 µM and the TGI (SNB-19 CNS) was 91.7 µM. For the same molecule, the GI50 (OVCAR-4 ovarian) was 9.08 µM, the TGI (OVCAR-4 ovarian) was > 100 µM and the GI50 (SF-295 CNS) was 2.95 µM. It also gave a TGI (SF-295 CNS) of 17.7 µM, a GI50 (HL-60(TB) leukemia) of 2.36 µM and a TGI (HL-60(TB) leukemia) of 8.6 µM. For the same molecule, the GI50 (NCI-H23 lung) was 4.4 µM, the TGI (NCI-H23 lung) was > 100 µM and the GI50 (CCRF-CEM leukemia) was 3.97 µM. For the same molecule, the TGI (CCRF-CEM leukemia) was > 100 µM, the GI50 (RPMI-8226 leukemia) was 2.65 µM and the TGI (RPMI-8226 leukemia) was > 100 µM. The GI50 (SF-268 CNS) was 7.77 µM, the TGI (SF-268 CNS) was > 100 µM and the GI50 (SK-MEL-5 melanoma) was 2.17 µM. The TGI (SK-MEL-5 melanoma) was 10.1 µM, the GI50 (LOX IMVI melanoma) was 3.11 µM and the TGI (LOX IMVI melanoma) was 29 µM. The GI50 (CAKI-1 renal) was 11.4 µM, the TGI (CAKI-1 renal) was > 100 µM and the GI50 (TK-10 renal) was 3.77 µM. It also gave a TGI (TK-10 renal) of 27.8 µM, a GI50 (SK-MEL-2 melanoma) of 2.9 µM and a TGI (SK-MEL-2 melanoma) of 18.6 µM. For the same molecule, the GI50 (OVCAR-8 ovarian) was 8.78 µM, the TGI (OVCAR-8 ovarian) was > 100 µM and the GI50 (HCT-116 colon) was 2.57 µM. For the same molecule, the TGI (HCT-116 colon) was 17.7 µM, the GI50 (T-47D breast) was 3.48 µM and the TGI (T-47D breast) was 81.2 µM. For the same molecule, the GI50 (SW-620 colon) was 3.35 µM, the TGI (SW-620 colon) was > 100 µM and the GI50 (HOP-62 NSCLC) was 5.21 µM. The TGI (HOP-62 NSCLC) was > 100 µM, the GI50 (SF-539 CNS) was 2.66 µM and the TGI (SF-539 CNS) was 9.4 µM. It also gave a GI50 (HS 578T breast) of 3.71 µM, a TGI (HS 578T breast) of 47.5 µM and a GI50 (IGROV1 ovarian) of 4.23 µM. For the same molecule, the TGI (IGROV1 ovarian) was > 100 µM, the GI50 (OVCAR-3 ovarian) was 5.01 µM and the TGI (OVCAR-3 ovarian) was 80.8 µM. The GI50 (MDA-MB-435) was 0.929 µM, the TGI (MDA-MB-435) was 3.93 µM and the GI50 (HCT-15 colon) was 2.78 µM. For the same molecule, the TGI (HCT-15 colon) was > 100 µM, the GI50 (NCI/ADR-RES ovarian) was 3.52 µM and the TGI (NCI/ADR-RES ovarian) was > 100 µM. It also gave a GI50 (NCI-H522 lung) of 1.9 µM and a TGI (NCI-H522 lung) of 6.8 µM.
